Experimental data as given in the supplement of paper PMC6045584.
± gives the standard deviation of the averaged measurements.

Compound: CS(=O)(=O)CCNCc1ccc(-c2ccc3ncnc(Nc4ccc(OCc5cccc(F)c5)c(Cl)c4)c3c2)o1 [LAPATINIB]
Assay: surviving fraction relative to DMSO-only wells; higher = less growth inhibition
Conditions: 1 nM; exposure time: 5 days
In short: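 For each tumour cell line, log-phase cells were put into 384-well plates at 250–500 cells per well, then after 24 hours exposed continuously for five days to inhibitors at 0.5, 1, 5, 10, 50, 100, 500 and 1000 nM. Viability was assessed by CellTiter-Glo luminescence, with surviving fraction expressed relative to the median of DMSO-only wells. Lines were screened three times and retained only if replicate Pearson r exceeded 0.7 and median Z' exceeded 0.3.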

Question: For NY BONE, which surviving fraction is on record?
Answer: The surviving fraction was 1.03 ± 0.042.

Question: How did the surviving fraction turn out when NOS1 BONE was run?
Answer: Its surviving fraction is 1.05 ± 0.12.

Same assay, conditions: 5 nM; exposure time: 5 days

Question: How did the surviving fraction turn out when SCC36 HEADNECK was run?
Answer: The surviving fraction was 1.08 ± 0.062.

Question: OS25HAL BONE was tested. Which surviving fraction did it give?
Answer: Its surviving fraction is 1.06 ± 0.066.

Question: For HCC1806 BREAST, which surviving fraction is on record?
Answer: The surviving fraction was 1.09 ± 0.04.

Question: With HU09 BONE as the test system, how does the surviving fraction read?
Answer: Its surviving fraction is 1.04 ± 0.1.

Question: With SG43 HEADNECK as the test system, how does the surviving fraction read?
Answer: Its surviving fraction is 0.84 ± 0.095.

Question: Which surviving fraction does the source give for U2OS BONE here?
Answer: The surviving fraction was 1.08 ± 0.014.

Question: With HOSMNG BONE as the test system, how does the surviving fraction read?
Answer: The surviving fraction was 0.88 ± 0.081.

Question: Which surviving fraction does the source give for CASKI CERVIX here?
Answer: Its surviving fraction is 0.952 ± 0.042.

Question: For SUM44 BREAST, which surviving fraction is on record?
Answer: Its surviving fraction is 1.11 ± 0.066.

Question: Which surviving fraction does the source give for MDAMB231 BREAST here?
Answer: Its surviving fraction is 0.986 ± 0.029.

Question: Which surviving fraction does the source give for CAL51 BREAST here?
Answer: Its surviving fraction is 1.03 ± 0.055.

Question: MDAMB436 BREAST was tested. Which surviving fraction did it give?
Answer: Its surviving fraction is 0.834 ± 0.091.

Question: HSSYII SYNOVIAL was tested. Which surviving fraction did it give?
Answer: The surviving fraction was 0.947 ± 0.051.

Question: How did the surviving fraction turn out when RDES SOFT TISSUE was run?
Answer: The surviving fraction was 1.14 ± 0.11.

Question: For MDAMB157 BREAST, which surviving fraction is on record?
Answer: The surviving fraction was 1.09 ± 0.034.

Question: Which surviving fraction does the source give for CHLA90 AUTONOMIC GANGLIA here?
Answer: The surviving fraction was 1.01 ± 0.052.

Question: With CADOES1 SOFT TISSUE as the test system, how does the surviving fraction read?
Answer: The surviving fraction was 0.976 ± 0.12.

Question: For SG31 HEADNECK, which surviving fraction is on record?
Answer: Its surviving fraction is 0.799 ± 0.1.

Question: For SCC47 HEADNECK, which surviving fraction is on record?
Answer: Its surviving fraction is 1.09 ± 0.011.

Question: S68 BREAST was tested. Which surviving fraction did it give?
Answer: The surviving fraction was 1.17 ± 0.11.

Question: With SNU475 LIVER as the test system, how does the surviving fraction read?
Answer: Its surviving fraction is 1.01 ± 0.027.

Question: 22RV1 PROSTATE was tested. Which surviving fraction did it give?
Answer: The surviving fraction was 0.954 ± 0.076.

Question: With SG32 HEADNECK as the test system, how does the surviving fraction read?
Answer: The surviving fraction was 1.07 ± 0.14.

Question: How did the surviving fraction turn out when SCC003 HEADNECK was run?
Answer: The surviving fraction was 1.06 ± 0.067.

Question: For “JURKAT HAEMATOPOIETIC AND LYMPHOID TISSUE”, which surviving fraction is on record?
Answer: Its surviving fraction is 0.936 ± 0.037.

Question: HT1080 SOFT TISSUE was tested. Which surviving fraction did it give?
Answer: Its surviving fraction is 1.02 ± 0.017.

Question: CAL120 BREAST was tested. Which surviving fraction did it give?
Answer: The surviving fraction was 1.02 ± 0.043.

Question: Which surviving fraction does the source give for MCF7 BREAST here?
Answer: The surviving fraction was 0.931 ± 0.049.

Question: For MFM223 BREAST, which surviving fraction is on record?
Answer: Its surviving fraction is 1.15 ± 0.027.

Question: For LNCAP PROSTATE, which surviving fraction is on record?
Answer: Its surviving fraction is 0.917 ± 0.086.

Question: How did the surviving fraction turn out when PCI30 HEADNECK was run?
Answer: Its surviving fraction is 1.05 ± 0.052.

Question: With OSHN BONE as the test system, how does the surviving fraction read?
Answer: Its surviving fraction is 1.09 ± 0.025.

Question: Which surviving fraction does the source give for SG28 HEADNECK here?
Answer: The surviving fraction was 0.851 ± 0.11.

Question: How did the surviving fraction turn out when HOS BONE was run?
Answer: The surviving fraction was 1.059 ± 0.01.

Question: HUO3N1 BONE was tested. Which surviving fraction did it give?
Answer: Its surviving fraction is 1.08 ± 0.038.

Question: For BT20 BREAST, which surviving fraction is on record?
Answer: The surviving fraction was 1.05 ± 0.048.

Question: How did the surviving fraction turn out when SJSA1 BONE was run?
Answer: Its surviving fraction is 1.67 ± 0.09.

Question: JIMT1 BREAST was tested. Which surviving fraction did it give?
Answer: Its surviving fraction is 1.05 ± 0.039.

Question: Which surviving fraction does the source give for HCC78 LUNG here?
Answer: The surviving fraction was 1.01 ± 0.038.

Question: For NY BONE, which surviving fraction is on record?
Answer: The surviving fraction was 1.05 ± 0.025.

Question: How did the surviving fraction turn out when NOS1 BONE was run?
Answer: The surviving fraction was 1.11 ± 0.069.

Same assay, conditions: 10 nM; exposure time: 5 days

Question: With SCC36 HEADNECK as the test system, how does the surviving fraction read?
Answer: The surviving fraction was 1.11 ± 0.051.

Question: For OS25HAL BONE, which surviving fraction is on record?
Answer: The surviving fraction was 1 ± 0.024.

Question: For HCC1806 BREAST, which surviving fraction is on record?
Answer: The surviving fraction was 1.09 ± 0.079.

Question: With HU09 BONE as the test system, how does the surviving fraction read?
Answer: The surviving fraction was 1.04 ± 0.089.

Question: SG43 HEADNECK was tested. Which surviving fraction did it give?
Answer: Its surviving fraction is 0.821 ± 0.067.

Question: U2OS BONE was tested. Which surviving fraction did it give?
Answer: Its surviving fraction is 1.08 ± 0.027.

Question: With HOSMNG BONE as the test system, how does the surviving fraction read?
Answer: The surviving fraction was 0.827 ± 0.12.

Question: For CASKI CERVIX, which surviving fraction is on record?
Answer: The surviving fraction was 0.818 ± 0.042.

Question: Which surviving fraction does the source give for SUM44 BREAST here?
Answer: Its surviving fraction is 1.17 ± 0.21.

Question: For MDAMB231 BREAST, which surviving fraction is on record?
Answer: The surviving fraction was 0.9838 ± 0.0088.

Question: With CAL51 BREAST as the test system, how does the surviving fraction read?
Answer: Its surviving fraction is 1.02 ± 0.04.

Question: How did the surviving fraction turn out when MDAMB436 BREAST was run?
Answer: The surviving fraction was 0.896 ± 0.03.

Question: For HSSYII SYNOVIAL, which surviving fraction is on record?
Answer: The surviving fraction was 0.973 ± 0.033.

Question: For RDES SOFT TISSUE, which surviving fraction is on record?
Answer: Its surviving fraction is 1.13 ± 0.13.

Question: MDAMB157 BREAST was tested. Which surviving fraction did it give?
Answer: The surviving fraction was 1.04 ± 0.095.

Question: With CHLA90 AUTONOMIC GANGLIA as the test system, how does the surviving fraction read?
Answer: The surviving fraction was 0.947 ± 0.051.

Question: Which surviving fraction does the source give for CADOES1 SOFT TISSUE here?
Answer: The surviving fraction was 0.996 ± 0.16.

Question: Which surviving fraction does the source give for SG31 HEADNECK here?
Answer: The surviving fraction was 0.948 ± 0.093.

Question: SCC47 HEADNECK was tested. Which surviving fraction did it give?
Answer: Its surviving fraction is 1.18 ± 0.033.

Question: For S68 BREAST, which surviving fraction is on record?
Answer: The surviving fraction was 1.26 ± 0.22.

Question: SNU475 LIVER was tested. Which surviving fraction did it give?
Answer: The surviving fraction was 0.992 ± 0.035.

Question: For 22RV1 PROSTATE, which surviving fraction is on record?
Answer: The surviving fraction was 1.01 ± 0.1.

Question: With SG32 HEADNECK as the test system, how does the surviving fraction read?
Answer: Its surviving fraction is 1.12 ± 0.17.

Question: For SCC003 HEADNECK, which surviving fraction is on record?
Answer: Its surviving fraction is 1.11 ± 0.079.

Question: “JURKAT HAEMATOPOIETIC AND LYMPHOID TISSUE” was tested. Which surviving fraction did it give?
Answer: Its surviving fraction is 0.959 ± 0.017.

Question: How did the surviving fraction turn out when HT1080 SOFT TISSUE was run?
Answer: The surviving fraction was 1.05 ± 0.016.

Question: How did the surviving fraction turn out when CAL120 BREAST was run?
Answer: Its surviving fraction is 1 ± 0.039.

Question: How did the surviving fraction turn out when MCF7 BREAST was run?
Answer: The surviving fraction was 0.962 ± 0.043.

Question: For MFM223 BREAST, which surviving fraction is on record?
Answer: The surviving fraction was 1.13 ± 0.081.

Question: How did the surviving fraction turn out when LNCAP PROSTATE was run?
Answer: Its surviving fraction is 0.981 ± 0.033.

Question: Which surviving fraction does the source give for PCI30 HEADNECK here?
Answer: The surviving fraction was 1.06 ± 0.084.

Question: With OSHN BONE as the test system, how does the surviving fraction read?
Answer: The surviving fraction was 1.1 ± 0.011.

Question: For SG28 HEADNECK, which surviving fraction is on record?
Answer: Its surviving fraction is 1.03 ± 0.042.

Question: With HOS BONE as the test system, how does the surviving fraction read?
Answer: Its surviving fraction is 1.03 ± 0.011.

Question: HUO3N1 BONE was tested. Which surviving fraction did it give?
Answer: Its surviving fraction is 1.084 ± 0.01.

Question: For BT20 BREAST, which surviving fraction is on record?
Answer: The surviving fraction was 1.12 ± 0.05.

Question: How did the surviving fraction turn out when SJSA1 BONE was run?
Answer: The surviving fraction was 1.72 ± 0.04.

Question: JIMT1 BREAST was tested. Which surviving fraction did it give?
Answer: The surviving fraction was 1.01 ± 0.024.

Question: For HCC78 LUNG, which surviving fraction is on record?
Answer: The surviving fraction was 0.795 ± 0.26.
